Legend:
[1] = target: T1, human alpha4,beta3,delta GABAA receptor (Homo sapiens, UniProt P28472+P48169); assay: Patch-clamp (Dynaflow) current response in HEK-293 cells expressing the human alpha4,beta3,delta GABAA receptor; assay type: cell-based
T1 construct: expressed in transfected cells
Procedure: (§1) Assay for testing GABAA receptor effects of 3beta-hydroxy-5alpha-pregnan-20-one on human alpha1,beta,gamma and alpha4,beta,delta GABAA receptor subtype.
(§2) In these tests the protocol was optimized to be similar to the physiological conditions in the synaptic cleft.
(§3) Cell culture: HEK-293 cells, permanently transfected with the human alpha1,beta,gamma and alpha4,beta,delta GABAA receptor subtypes, were seeded at a density of 3×10^4/25 cm^2 in cellbind culture flask. The transfected cells were used for patch-clamp experiments 3 days after seeding. When using the cells for patch-clamp experiments the cells were washed twice with oxygen-bubbled extracellular (EC) solution (see below). About 5 mL EC was then added and the cells were kept in the incubator for about 15 minutes. After 15 minutes the cells came loose from the bottom of the flask and were separated by carefully sucking couple of times with a Pasteur pipette.
(§4) DYNAFLOW™ system with Resolve chip was used for patch-clamp experiments: The electrophysiological recordings from HEK-293 cells were performed under voltage-clamp conditions using patch-clamp technique and the DYNAFLOW™ system (DYNAFLOW™ Pro II Platform Zeiss Axiovert 25; Cellectricon AB, Sweden) with Resolve chips as application system.
(§5) Patch pipettes were pulled from borosilicate glass and polished to a resistance 2-5 MΩ when filled with suitable intracellular solution (IC) (pH was adjusted to 7.2) and immersed in bath solution (extracellular, EC) (pH is adjusted to 7.4). The recordings were made using an Axopatch 200B amplifier, a Digidata 1322A (Axon instruments, Foster city, USA). Data were acquired using the pCLAMP software sampled at 10 kHz, filtered at 2-10 kHz and analyzed with Clampfit (versions 9.0, both from Axon instruments, Foster city, USA). No higher series resistance than 20 MΩ between pipette and cell membrane was accepted. No series resistance compensation was used. The stability of series resistance was monitored repeatedly from the time course of capacitative transients during the experiments. The measured liquid-junction potential between EC and IC was subtracted in all data presented. An experiments were performed at room temperature (21-23° C.).
(§6) All steroids were dissolved to the concentration of 6 mM in DMSO. […] End solutions were the solutions added into the wells of the chip.
(§7) Electrophysiology: After compensating for the liquid junction potential a steady holding potential of −17 mV was used in all experiments. […] By using the holding potential of −17 mV and the intracellular solution with low chloride ion concentration the chloride ions flux into the cell when the receptors were activated.
The DYNAFLOW™ system allowed application of solutions for as short as 40 ms up to minutes in time. […] Therefore, the first GABA application was always repeated twice and the second response was used in the analysis.
Washout: GABA is quite soluble in water and easy to washout from the receptor. […] Steroids on the other hand were difficult to dissolve in water and also difficult to washout from the receptor. In the experiments, THDOC and 3alpha-OH-adiol were used as the positive GABAA receptor modulating steroids. With 2 minutes washout time, 200 nM THDOC and 3alpha-OH-adiol was completely washed out as shown by neither an accumulative nor a desensitization effect.
(§8) Different incubation times were studied to achieve the optimal time for attain stable results and minimize the washout time.
(§9) Biological evaluation—HEK-293 cells, permanently transfected with human alpha1,beta,gamma and alpha4,beta,delta GABAA receptor subtypes and expressing these GABAA receptors.
Cell lines permanently expressing a functional human GABAA receptor was made in following steps. The GABAA receptor subunits alpha1,beta2,gamma2L or alpha4,beta3,delta including introduced Kozac sequences just before the start codons were subcloned into mammalian expression vectors containing Geneticin, Hygromycin B, and Zeocin resistance, respectively. […]

[2] = target: T2, human alpha1,beta2,gamma2 GABAA receptor (Homo sapiens, UniProt P14867+P47870); assay: Patch-clamp (Dynaflow) current response in HEK-293 cells expressing the human alpha1,beta2,gamma2 GABAA receptor; assay type: cell-based; details: for Androstandiol effect by itself (baseline shift), current response in absence of GABA: no GABA; for Antagonism of THDOC enhanced GABA effect, single dose: 1 μM UC1010 + 30 μM GABA + 200 nM THDOC; for Imax, maximal antagonism of THDOC effect in concentration-dependent experiment: 0.1-1 μM UC1010 + 30 μM GABA + 200 nM THDOC, max reached at 1 μM
T2 construct: expressed in transfected cells
Procedure: as §1, §2, §3, §4, §5, §6, §7
The DYNAFLOW™ system allowed application of solutions for as short as 40 ms up to minutes in time.
In the experiments, THDOC and 3alpha-OH-adiol were used as the positive GABAA receptor modulating steroids.
as §8, §9
Cell lines permanently expressing a functional human GABAA receptor was made in following steps. The GABAA receptor subunits alpha1,beta2,gamma2L or alpha4,beta3,delta including introduced Kozac sequences just before the start codons were subcloned into mammalian expression vectors containing Geneticin, Hygromycin B, and Zeocin resistance, respectively. A HEK-293 cell line stably expressing the three GABAA receptor subunits was produced by transfection of the subunits one at a time.

[3] = essential tremor, cited from earlier work
[4] = HEK293, read-out: Emax, androstandiol enhancement of GABA mediated current
[5] = listed as 3beta-hydroxy-5alpha-pregnan-20-one

T2 sequence (P14867 28-456): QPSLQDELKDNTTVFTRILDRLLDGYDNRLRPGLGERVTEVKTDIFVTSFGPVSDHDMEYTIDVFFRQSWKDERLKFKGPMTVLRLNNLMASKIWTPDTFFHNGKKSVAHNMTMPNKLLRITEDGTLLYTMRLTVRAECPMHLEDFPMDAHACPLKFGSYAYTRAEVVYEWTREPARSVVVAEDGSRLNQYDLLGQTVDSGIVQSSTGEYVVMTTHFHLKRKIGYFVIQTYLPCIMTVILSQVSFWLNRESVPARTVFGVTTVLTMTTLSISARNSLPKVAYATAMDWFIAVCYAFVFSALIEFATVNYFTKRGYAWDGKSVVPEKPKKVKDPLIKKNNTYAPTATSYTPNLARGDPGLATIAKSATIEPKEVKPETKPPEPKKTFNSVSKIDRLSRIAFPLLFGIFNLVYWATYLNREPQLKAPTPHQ
T2 sequence (P47870 26-512): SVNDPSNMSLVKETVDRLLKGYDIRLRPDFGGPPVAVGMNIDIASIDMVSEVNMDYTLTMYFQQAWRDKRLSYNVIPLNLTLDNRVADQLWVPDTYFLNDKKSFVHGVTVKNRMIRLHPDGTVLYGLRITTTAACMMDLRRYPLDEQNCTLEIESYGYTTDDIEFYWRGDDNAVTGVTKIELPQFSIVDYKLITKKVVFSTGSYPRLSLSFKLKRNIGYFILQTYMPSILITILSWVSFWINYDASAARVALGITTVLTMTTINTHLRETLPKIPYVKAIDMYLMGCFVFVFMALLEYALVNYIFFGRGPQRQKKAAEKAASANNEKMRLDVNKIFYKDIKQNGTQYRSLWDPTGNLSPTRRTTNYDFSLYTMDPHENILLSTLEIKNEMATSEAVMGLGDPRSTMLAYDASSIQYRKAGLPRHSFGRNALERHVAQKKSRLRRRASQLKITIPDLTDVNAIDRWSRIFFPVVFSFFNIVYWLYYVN
T2 sequence (P18507 40-475 partner): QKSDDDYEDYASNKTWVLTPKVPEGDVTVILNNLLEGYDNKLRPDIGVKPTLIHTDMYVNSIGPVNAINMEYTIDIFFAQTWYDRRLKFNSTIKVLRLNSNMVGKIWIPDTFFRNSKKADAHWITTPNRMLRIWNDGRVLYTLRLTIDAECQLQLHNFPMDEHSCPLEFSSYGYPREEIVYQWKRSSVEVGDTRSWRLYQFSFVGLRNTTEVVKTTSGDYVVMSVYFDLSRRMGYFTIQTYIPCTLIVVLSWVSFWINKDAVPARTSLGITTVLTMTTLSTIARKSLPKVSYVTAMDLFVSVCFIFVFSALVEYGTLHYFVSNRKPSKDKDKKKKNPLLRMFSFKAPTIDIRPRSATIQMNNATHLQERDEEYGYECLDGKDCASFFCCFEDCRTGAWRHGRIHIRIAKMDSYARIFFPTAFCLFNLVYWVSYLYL
T1 sequence (P48169 36-554): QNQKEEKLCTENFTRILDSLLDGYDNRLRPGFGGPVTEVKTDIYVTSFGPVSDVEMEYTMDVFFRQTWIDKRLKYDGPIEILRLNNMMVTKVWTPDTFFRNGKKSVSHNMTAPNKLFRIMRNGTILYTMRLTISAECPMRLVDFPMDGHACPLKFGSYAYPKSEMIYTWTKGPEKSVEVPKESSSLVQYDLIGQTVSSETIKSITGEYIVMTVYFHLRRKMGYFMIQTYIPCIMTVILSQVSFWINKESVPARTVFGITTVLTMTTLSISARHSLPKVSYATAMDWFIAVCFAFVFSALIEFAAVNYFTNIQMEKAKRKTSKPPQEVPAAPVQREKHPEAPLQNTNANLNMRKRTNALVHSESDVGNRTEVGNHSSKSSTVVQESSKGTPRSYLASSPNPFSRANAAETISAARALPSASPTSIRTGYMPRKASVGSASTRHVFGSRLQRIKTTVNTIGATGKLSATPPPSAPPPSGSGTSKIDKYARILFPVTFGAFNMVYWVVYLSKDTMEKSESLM
T1 sequence (P28472 26-473): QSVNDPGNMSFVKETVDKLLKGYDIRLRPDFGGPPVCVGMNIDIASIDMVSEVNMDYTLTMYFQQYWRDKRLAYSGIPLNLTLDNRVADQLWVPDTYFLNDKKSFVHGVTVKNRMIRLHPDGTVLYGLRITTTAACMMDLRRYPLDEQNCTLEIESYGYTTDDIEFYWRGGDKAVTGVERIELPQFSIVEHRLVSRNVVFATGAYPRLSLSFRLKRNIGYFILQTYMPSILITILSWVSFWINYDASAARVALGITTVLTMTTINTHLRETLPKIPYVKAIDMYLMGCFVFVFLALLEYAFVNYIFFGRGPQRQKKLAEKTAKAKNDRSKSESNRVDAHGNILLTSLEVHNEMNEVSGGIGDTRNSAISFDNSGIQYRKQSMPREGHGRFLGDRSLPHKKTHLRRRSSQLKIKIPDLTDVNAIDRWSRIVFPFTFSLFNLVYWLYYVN
T1 sequence (O14764 17-452 partner limits assumed): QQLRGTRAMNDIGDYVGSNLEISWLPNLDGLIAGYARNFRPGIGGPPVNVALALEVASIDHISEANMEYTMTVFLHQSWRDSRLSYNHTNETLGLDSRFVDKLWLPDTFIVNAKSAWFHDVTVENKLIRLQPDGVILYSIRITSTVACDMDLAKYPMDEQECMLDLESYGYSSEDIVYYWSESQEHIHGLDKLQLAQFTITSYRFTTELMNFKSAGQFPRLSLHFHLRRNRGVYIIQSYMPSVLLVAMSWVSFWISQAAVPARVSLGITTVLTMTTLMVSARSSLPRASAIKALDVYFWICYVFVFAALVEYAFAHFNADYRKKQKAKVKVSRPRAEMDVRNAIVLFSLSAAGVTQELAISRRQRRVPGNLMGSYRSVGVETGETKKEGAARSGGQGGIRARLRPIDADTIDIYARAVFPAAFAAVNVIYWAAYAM

SMILES: C[C@]12CC[C@@H](O)C[C@@H]1CC[C@@H]1[C@@H]2CC[C@]2(C)C(O)CC[C@@H]12 (stereo partly drawn) [Androstandiol, 3alpha-hydroxy-5alpha-androstan-17-ol]
- Potency at alpha4,beta3,delta relative to alpha1,beta2,gamma2 (higher) ([1]; 0.38 μM vs. 3.4 μM): 10 times
- Androstandiol baseline shift, current response in absence of GABA ([1]; 3 μM androstandiol, no GABA, Mean ± SEM): +8 ± 3.6 pA
- Androstandiol baseline shift, current response in absence of GABA ([1]; 10 μM androstandiol, no GABA, Mean ± SEM): +13 ± 4.8 pA
- Emax [1, 4]: 142%
- Androstandiol effect by itself (baseline shift), current response in absence of GABA ([2]; 3 μM androstandiol, Mean ± SEM): +8 ± 3.6 pA
- Androstandiol effect by itself (baseline shift), current response in absence of GABA ([2]; 8 μM androstandiol, Mean ± SEM): +13 ± 2.3 pA
- Androstandiol effect by itself (baseline shift), current response in absence of GABA ([2]; 10 μM androstandiol, Mean ± SEM): +11 ± 1.5 pA
- Androstandiol effect by itself (baseline shift), current response in absence of GABA ([2]; 30 μM androstandiol, Mean ± SEM): +24 ± 6.8 pA
- Androstandiol effect by itself (baseline shift), current response in absence of GABA ([2]; 100 μM androstandiol, Mean ± SEM): +43 ± 5.7 pA
- Emax [2, 4]: 281%
- Potency relative to THDOC in enhancing the effect of GABA (less potent) ([2]; androstandiol vs THDOC): 48 times

SMILES: C[C@]12CC[C@@H](O)C[C@H]1CC[C@@H]1[C@@H]2CC[C@]2(C)[C@@H](C(=O)CO)CC[C@@H]12 [THDOC, Tetrahydrodeoxycorticosterone]
- THDOC baseline shift, current response in absence of GABA ([1]; 0.03 μM THDOC, no GABA, Mean ± SEM): +5 ± 3.3 pA
- THDOC baseline shift, current response in absence of GABA ([1]; 0.1 μM THDOC, no GABA, Mean ± SEM): +15 ± 9.5 pA
- THDOC baseline shift, current response in absence of GABA ([1]; 0.3 μM THDOC, no GABA, Mean ± SEM): +12 ± 7.9 pA
- THDOC baseline shift, current response in absence of GABA ([1]; 1 μM THDOC, no GABA, Mean ± SEM): +69 ± 35 pA
- Emax, THDOC enhancement of GABA mediated current ([1]; 3 μM GABA): 297%
- EC50 ([1]; read-out: EC50, THDOC enhancement of GABA mediated current, 3 μM GABA): 47 nM
- Imax/Emax, THDOC enhancement of GABA mediated current ([2]; 0.03-1 μM THDOC + 30 μM GABA, control 30 μM GABA set to 0): +115%

SMILES: Cc1nnc2n1-c1ccc(Cl)cc1C(c1ccccc1)=NC2 [alprazolam]
- Reduction of tremor scores [3]: 25%

SMILES: CCO [Alcohol]
- Reduction in tremor scores ([3]; only during a short period (30 minutes) with a rebound later): 50%

SMILES: CCC1(c2ccccc2)C(=O)NCNC1=O [Primidone, primidone]
- Reduction of tremor scores [3]: 35-50%

SMILES: CC(=O)[C@H]1CC[C@H]2[C@@H]3CC[C@H]4C[C@@H](O)CC[C@]4(C)[C@H]3CC[C@]12C [UC1010, 3beta-hydroxy-5alpha-pregnan-20-one]
- Effect of 1 μM UC1010 on 3 μM GABA response ([1]; 1 μM UC1010, 3 μM GABA, Mean ± SEM, N=11, NS): −6.7 ± 3.3%
- Effect of 1 μM UC1010 on 0.6 μM Androstandiol + 3 μM GABA ([1]; 1 μM UC1010, Mean ± SEM): −18 ± 2.0%
- Effect of 1 μM UC1010 on 0.8 μM Androstandiol + 3 μM GABA ([1]; 1 μM UC1010, Mean ± SEM): −22 ± 2.6%
- Effect of 1 μM UC1010 on 0.1 μM THDOC alone baseline ([1]; 1 μM UC1010, THDOC induced baseline shift without GABA, Mean ± SEM): −43 ± 3.5%
- Effect of UC1010 on GABA-mediated current response, GABA alone (in words) ([1]; 1 μM UC1010, data not shown): without any significant effect
- Effect of 1 μM UC1010 on 0.1 μM THDOC + 3 μM GABA ([1]; 1 μM UC1010, steady state, Mean ± SEM): −26 ± 2.4%
- Effect of the compound by itself, current response ([1]; 1 μM, no GABA, no THDOC, N=11, NS vs EC solution): −0.4±0.3 pA
- Antagonism of THDOC enhanced GABA effect, single dose [2]: −21 ± 4.6%
- Antagonism of THDOC enhanced GABA effect, single dose [2, 5]: −22.3±5.3%
- Modulatory effect of UC1010 on GABA response ([2]; 1 μM UC1010 + 30 μM GABA, vs GABA alone, NS, n=9): 10.3±7.8%
- Effect of 1 μM UC1010 on 8 μM Androstandiol + 30 μM GABA ([2]; 1 μM UC1010, steady state (phasic effect), Mean ± SEM): −30 ± 1.7%
- Effect of 1 μM UC1010 on 8 μM Androstandiol, baseline shift ([2]; 1 μM UC1010, tonic effect without GABA, Mean ± SEM): −33 ± 7.6%
- Imax, maximal antagonism of THDOC effect in concentration-dependent experiment [2]: −21%
- Imax, maximal antagonism of THDOC effect in concentration-dependent experiment [2, 5]: −21±4.6%

From patent publication US11026953B2, “3-beta-hydroxy-5-alpha-pregnan-20-one for use in treatment of essential tremor” (ASARINA PHARMA AB, priority 2017, dated 2021)
